Values after ≈ are worked out from the molar mass of the structure shown. Active and inactive are the calls of the source. The calls are words filed in the database; no cut-off is given here.
Columns and labels:
K562 [1] = assay: cells; details: Homo sapiens, K562, 72 h
Description: Antiproliferative activity against human K562 cells under normoxic condition after 72 hrs by using CyQUANT GR dye

cells [2] = details: Homo sapiens, KU812, 72 h
Description: Antiproliferative activity against human KU812 cells under normoxic condition after 72 hrs by using CyQUANT GR dye

MEG-01 [3] = assay: cells; details: Homo sapiens, MEG-01, 72 h
Description: Antiproliferative activity against human MEG01 cells under normoxic condition after 72 hrs by using CyQUANT GR dye

[4] = target: T1, Proto-oncogene tyrosine-protein kinase Src (Homo sapiens, UniProt P12931)
Description: (§1) Inhibition of human recombinant c-Src by filter-binding assay

[5] = Apparent permeability of the compound at pH 7.4 by PAMPA assay; format: ADME
[6] = target: T2, Signal transducer and activator of transcription 5A (Homo sapiens) (UniProt P42229); assay: Inhibition of STAT5 phosphorylation in human K562 cells under normoxic condition after 3 hrs by Western blotting; format: cell-based
T2 sequence (whole entry): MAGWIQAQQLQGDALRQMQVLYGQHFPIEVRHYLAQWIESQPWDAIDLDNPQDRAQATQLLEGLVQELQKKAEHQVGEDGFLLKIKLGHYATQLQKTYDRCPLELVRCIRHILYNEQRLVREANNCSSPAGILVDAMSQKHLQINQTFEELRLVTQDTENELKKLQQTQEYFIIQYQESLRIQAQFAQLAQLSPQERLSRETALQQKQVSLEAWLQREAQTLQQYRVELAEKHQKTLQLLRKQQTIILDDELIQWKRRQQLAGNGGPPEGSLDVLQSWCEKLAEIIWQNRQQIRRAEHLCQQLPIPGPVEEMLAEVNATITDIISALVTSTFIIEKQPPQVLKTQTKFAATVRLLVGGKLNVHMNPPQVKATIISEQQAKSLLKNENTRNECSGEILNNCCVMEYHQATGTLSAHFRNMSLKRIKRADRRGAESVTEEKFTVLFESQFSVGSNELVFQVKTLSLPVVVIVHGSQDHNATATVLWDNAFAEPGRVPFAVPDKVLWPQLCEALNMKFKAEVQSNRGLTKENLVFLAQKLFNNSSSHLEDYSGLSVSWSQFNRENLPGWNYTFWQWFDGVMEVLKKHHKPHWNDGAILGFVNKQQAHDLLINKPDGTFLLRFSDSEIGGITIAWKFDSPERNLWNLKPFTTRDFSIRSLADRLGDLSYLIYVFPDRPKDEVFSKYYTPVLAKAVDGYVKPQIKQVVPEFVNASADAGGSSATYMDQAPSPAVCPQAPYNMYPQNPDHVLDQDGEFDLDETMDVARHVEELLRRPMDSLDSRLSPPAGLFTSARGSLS

[7] = target: T2, Signal transducer and activator of transcription 5A (Homo sapiens); assay: Inhibition of STAT5 phosphorylation in human MEG-01 cells under hypoxic condition after 3 hrs by Western blotting; format: cell-based
K562 [8] = assay: cells; details: Homo sapiens, K562, 72 h; remark: listed apart in the source
Description: Antiproliferative activity against human K562 cells under hypoxic condition after 72 hrs by using CyQUANT GR dye

[9] = Solubility of the compound in water at pH 7.4; format: physicochemical
[10] = target: T2, Signal transducer and activator of transcription 5A (Homo sapiens); assay: Inhibition of STAT5 phosphorylation in human KU812 cells under normoxic condition after 3 hrs by Western blotting; format: cell-based
[11] = target: T1, Proto-oncogene tyrosine-protein kinase Src; remark: listed apart in the source
Description: as §1

[12] = Metabolic stability in human liver microsomes assessed as parent compound remaining after 60 mins by LC-MS analysis; format: ADME, Microsome; details: read-out: Stability
cells [13] = details: Homo sapiens, KU812, 72 h; remark: listed apart in the source
Description: Antiproliferative activity against human KU812 cells under hypoxic condition after 72 hrs by using CyQUANT GR dye

K562 [14] = assay: Induction of HIF1alpha expression in human K562 cells under hypoxic condition assessed as HIF1alpha accumulation after 3 hrs by Western blotting; format: functional, cell-based
[15] = target: T2, Signal transducer and activator of transcription 5A (Homo sapiens); assay: Inhibition of STAT5 phosphorylation in human K562 cells under hypoxic condition after 3 hrs by Western blotting; format: cell-based
[16] = target: T2, Signal transducer and activator of transcription 5A (Homo sapiens); assay: Inhibition of STAT5 phosphorylation in human KU812 cells under hypoxic condition after 3 hrs by Western blotting; format: cell-based
MEG-01 [17] = assay: cells; details: Homo sapiens, MEG-01, 72 h; remark: listed apart in the source
Description: Antiproliferative activity against human MEG01 cells under hypoxic condition after 72 hrs by using CyQUANT GR dye

[18] = target: Tyrosine-protein kinase ABL1 (Homo sapiens, UniProt P00519)
Sequence of Tyrosine-protein kinase ABL1 (P00519 whole entry): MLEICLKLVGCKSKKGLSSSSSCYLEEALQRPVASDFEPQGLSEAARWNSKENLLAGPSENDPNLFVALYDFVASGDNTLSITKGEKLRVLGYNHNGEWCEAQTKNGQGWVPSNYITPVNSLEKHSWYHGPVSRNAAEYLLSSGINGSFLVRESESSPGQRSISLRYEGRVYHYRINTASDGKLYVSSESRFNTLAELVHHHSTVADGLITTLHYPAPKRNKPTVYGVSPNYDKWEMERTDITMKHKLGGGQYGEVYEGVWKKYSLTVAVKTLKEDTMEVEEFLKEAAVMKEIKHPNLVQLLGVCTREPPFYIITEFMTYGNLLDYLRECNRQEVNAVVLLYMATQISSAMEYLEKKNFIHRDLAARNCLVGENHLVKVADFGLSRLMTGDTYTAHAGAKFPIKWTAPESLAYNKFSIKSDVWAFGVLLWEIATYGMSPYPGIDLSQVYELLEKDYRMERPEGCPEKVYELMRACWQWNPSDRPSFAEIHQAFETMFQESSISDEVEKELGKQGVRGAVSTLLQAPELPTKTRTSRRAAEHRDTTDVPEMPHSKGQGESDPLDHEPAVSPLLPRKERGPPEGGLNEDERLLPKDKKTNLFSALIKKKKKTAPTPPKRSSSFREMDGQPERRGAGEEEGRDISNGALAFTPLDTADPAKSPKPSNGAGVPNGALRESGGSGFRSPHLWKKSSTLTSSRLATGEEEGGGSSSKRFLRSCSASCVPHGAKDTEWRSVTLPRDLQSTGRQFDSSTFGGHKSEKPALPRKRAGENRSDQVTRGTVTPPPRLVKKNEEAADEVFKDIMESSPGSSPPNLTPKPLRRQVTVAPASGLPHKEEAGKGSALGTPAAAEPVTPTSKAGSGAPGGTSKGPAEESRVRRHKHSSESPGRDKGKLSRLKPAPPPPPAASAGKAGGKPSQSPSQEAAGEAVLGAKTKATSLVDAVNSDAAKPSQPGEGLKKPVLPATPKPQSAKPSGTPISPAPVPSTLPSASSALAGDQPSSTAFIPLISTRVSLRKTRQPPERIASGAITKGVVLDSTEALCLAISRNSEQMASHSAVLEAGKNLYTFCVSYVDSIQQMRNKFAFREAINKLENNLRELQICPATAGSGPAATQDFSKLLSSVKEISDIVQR
Description: Inhibition of human recombinant c-Abl by filter-binding assay

[19] = target: T2, Signal transducer and activator of transcription 5A (Homo sapiens); assay: Inhibition of STAT5 phosphorylation in human MEG-01 cells under normoxic condition after 3 hrs by Western blotting; format: cell-based
[20] = Cytotoxicity against mouse BA/F3 cells expressing p210Bcr-Abl Y253F mutant; format: functional; details: BaF3, read-out: LD50 (the source's name)
[21] = Cytotoxicity against mouse BA/F3 cells expressing p210Bcr-Abl T315I mutant; format: functional; details: BaF3, read-out: LD50 (the source's name)
K562 [22] = assay: Induction of apoptosis in human K562 cells assessed as caspase-3 mediated cleavage of PARP level at 10 uM after 72 hrs under hypoxic condition by immunoblot analysis; format: functional, cell-based
K562 [23] = assay: Induction of apoptosis in human K562 cells assessed as caspase-3 activity at 10 uM under hypoxic condition after 72 hrs by fluorescence microplate reader; format: functional, cell-based
[24] = Cytotoxicity against mouse BA/F3 cells expressing p210Bcr-Abl E255K mutant; format: functional; details: BaF3, read-out: LD50 (the source's name)
K562 [25] = assay: Induction of apoptosis in human K562 cells assessed as caspase-3 activity at 10 uM under normoxic condition after 72 hrs by fluorescence microplate reader; format: functional, cell-based
[26] = Cytotoxicity against mouse BA/F3 cells expressing wild type p210Bcr-Abl; format: functional; details: BaF3, read-out: LD50 (the source's name)
K562 [27] = assay: Inhibition of carbonic anhydrase 9 mRNA expression in human K562 cells under hypoxic condition at 10 uM after 72 hrs by quantitative RT-PCR analysis; format: functional, cell-based
K562 [28] = assay: Inhibition of carbonic anhydrase 9 mRNA expression in human K562 cells under normoxic condition at 10 uM after 72 hrs by quantitative RT-PCR analysis; format: functional, cell-based

T1 sequence (P12931 2-536 limits assumed): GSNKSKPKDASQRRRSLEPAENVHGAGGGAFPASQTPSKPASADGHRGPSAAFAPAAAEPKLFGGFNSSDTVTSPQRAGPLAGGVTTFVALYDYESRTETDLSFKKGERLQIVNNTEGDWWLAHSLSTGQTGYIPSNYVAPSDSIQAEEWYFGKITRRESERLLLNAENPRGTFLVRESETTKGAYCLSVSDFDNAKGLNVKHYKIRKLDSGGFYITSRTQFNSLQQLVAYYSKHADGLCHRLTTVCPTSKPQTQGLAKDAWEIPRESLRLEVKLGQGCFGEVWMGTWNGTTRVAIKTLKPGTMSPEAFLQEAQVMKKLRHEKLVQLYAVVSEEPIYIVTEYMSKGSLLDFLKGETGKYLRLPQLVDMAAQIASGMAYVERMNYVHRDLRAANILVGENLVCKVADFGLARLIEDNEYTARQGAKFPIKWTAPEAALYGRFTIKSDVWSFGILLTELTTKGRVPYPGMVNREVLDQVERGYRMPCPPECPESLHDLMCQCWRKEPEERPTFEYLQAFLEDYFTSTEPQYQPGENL

SMILES | IC50 (K562 [1]) [µM] | IC50 (cells [2]) [µM] | IC50 (MEG-01 [3]) [µM] | Papp [5] [×10⁻⁶ cm/s] | inhibition [6] | inhibition [7] | IC50 (K562 [8]) [µM] | solubility [9] [µg/mL] | inhibition [10] | remaining at 1 h [12] [%] | inhibition [15] | inhibition [16] | IC50 (MEG-01 [17]) [µM] | inhibition [19] | further results
Fc1ccc(C(Cl)Cn2ncc3c(NCc4ccccn4)ncnc32)cc1 (stereo not drawn) | 37.5 | 40.6 | 23.8 |  |  |  |  |  |  |  |  |  |  |  | 
ClC(Cn1ncc2c(NCCc3ccccc3)nc(SCCN3CCOCC3)nc21)c1ccccc1 (stereo not drawn) |  |  |  |  |  |  |  |  |  |  |  |  |  |  | Ki [4]: Not Active
Clc1ccc(C(Cl)Cn2ncc3c(NCc4ccncc4)ncnc32)cc1 (stereo not drawn) | 12.7 | 10.1 | 14.6 | 5.4 | Active | Active | 20.4 | 12.3 (≈ 30.8 µM) | Active | 90 | Active | Active | 43.5 | Active | Ki [11]: 3.9 µM; IC50 (cells [13]): > 100 µM; Activity (K562 [14]): inactive; Ki [18]: 660 nM
Fc1ccc(CNc2ncnc3c2cnn3CC(Cl)c2ccc(Cl)cc2)cc1 (stereo not drawn) | 9.2 | 8.1 | 6.2 |  | Active | Active | 2.8 | < 0.04 | Active | 94 | Active | Active | 6.1 | Active | CC50 [20]: 700 nM; CC50 [21]: 700 nM; Activity (K562 [22]): Active; Activity (K562 [23]): Active; CC50 [24]: 700 nM; IC50 (cells [13]): 13.3 µM; Activity (K562 [14]): inactive; Activity (K562 [25]): Active; CC50 [26]: 700 nM
CC(Cn1ncc2c(Nc3cccc(Cl)c3)ncnc21)c1ccccc1 (stereo not drawn) |  |  |  | 13.5 |  |  |  | < 0.04 |  | 75 |  |  |  |  | 
Clc1cccc(Nc2nc(N3CCOCC3)nc3c2cnn3CC(Cl)c2ccccc2)c1 (stereo not drawn) | 12.2 | 2.2 | 7.7 | 14.8 | Active | Active | 4.6 | 0.13 (≈ 0.277 µM) | Active | 90 | Active | Active | 15 | Active | inhibition (K562 [27]): Active; Activity (K562 [22]): Active; Activity (K562 [23]): Active; inhibition (K562 [28]): Active; Ki [11]: 7.6 µM; IC50 (cells [13]): 16.1 µM; Activity (K562 [14]): inactive; Activity (K562 [25]): Active; Ki [18]: 390 nM
Clc1cccc(Nc2nc(SCCN3CCOCC3)nc3c2cnn3CC(Cl)c2ccccc2)c1 (stereo not drawn) | 4.5 |  | 6.1 |  | Active | Active |  | 0.1 (≈ 0.189 µM) | Active | 95 | Active | Active |  | Active | 
Fc1ccc(CNc2ncnc3c2cnn3CC(Cl)c2ccc(F)cc2)cc1 (stereo not drawn) |  |  |  | 11 |  |  |  | < 0.04 |  | 82 |  |  |  |  | 
OCCNc1nc(NCCc2ccccc2)c2cnn(/C=C\c3ccccc3)c2n1 | 2.3 |  | 12.9 | 2.6 |  |  | 8.1 | 0.4 (≈ 0.999 µM) |  | 84 |  |  | 34 |  | Ki [11]: 2.4 µM; Ki [18]: 220 nM
CS(=O)(=O)c1nc(NCc2ccccc2)c2cnn(CC(Cl)c3ccccc3)c2n1 (stereo not drawn) | 35.8 | 36.1 | 41.4 |  |  |  |  |  |  |  |  |  |  |  | 
Clc1ccc(C(Cl)Cn2ncc3c(NCc4ccccn4)ncnc32)cc1 (stereo not drawn) | 30.6 | 31.4 | 16.6 |  |  |  |  |  |  |  |  |  |  |  | 
Fc1ccc(C(Cl)Cn2ncc3c(NCc4ccncc4)ncnc32)cc1 (stereo not drawn) | 36.5 | 56.4 | 37.4 |  |  |  |  |  |  |  |  |  |  |  | 
ClC(Cn1ncc2c(Nc3ccccc3)nc(SCCN3CCOCC3)nc21)c1ccccc1 (stereo not drawn) | 2.2 |  |  | 10 | Active | Active | 4.7 |  | Active |  | Active | Active |  | Active | 
ClC(Cn1ncc2c(NCc3ccccc3)nc(SCCN3CCOCC3)nc21)c1ccccc1 (stereo not drawn) | 3.1 |  | 23.7 | 9.1 |  | Active | 5.1 | 1.2 (≈ 2.36 µM) | Active | 95 |  | Active | 19.7 | Active | Ki [11]: 2.9 µM; Ki [18]: 90 nM

Source: ChEMBL document CHEMBL1773066, “Design, synthesis, biological activity, and ADME properties of pyrazolo[3,4-d]pyrimidines active in hypoxic human leukemia cells: a lead optimization study” (J Med Chem, 2011)
